# From patent USRE47193E1, “Selectively substituted quinoline compounds” (EISAI R&D MANAGEMENT CO., LTD., priority 2013, dated 2019)
# Several values for one entry are separate records, joined by “and”; a condition that tells them apart may be missing. Identical values can stand only once. Like-named read-outs stand apart in the source and are kept apart here.
# Target: T1, Human TLR7 (Homo sapiens, UniProt Q9NYK1)
# T1 construct: stably and individually express human TLR4, TLR7 or TLR9 full-length ORF cDNAs; host or cells: HEK-293 (ATCC) with ELAM-1 NF-kappaB luciferase reporter
# T1 sequence (Q9NYK1 27-1049): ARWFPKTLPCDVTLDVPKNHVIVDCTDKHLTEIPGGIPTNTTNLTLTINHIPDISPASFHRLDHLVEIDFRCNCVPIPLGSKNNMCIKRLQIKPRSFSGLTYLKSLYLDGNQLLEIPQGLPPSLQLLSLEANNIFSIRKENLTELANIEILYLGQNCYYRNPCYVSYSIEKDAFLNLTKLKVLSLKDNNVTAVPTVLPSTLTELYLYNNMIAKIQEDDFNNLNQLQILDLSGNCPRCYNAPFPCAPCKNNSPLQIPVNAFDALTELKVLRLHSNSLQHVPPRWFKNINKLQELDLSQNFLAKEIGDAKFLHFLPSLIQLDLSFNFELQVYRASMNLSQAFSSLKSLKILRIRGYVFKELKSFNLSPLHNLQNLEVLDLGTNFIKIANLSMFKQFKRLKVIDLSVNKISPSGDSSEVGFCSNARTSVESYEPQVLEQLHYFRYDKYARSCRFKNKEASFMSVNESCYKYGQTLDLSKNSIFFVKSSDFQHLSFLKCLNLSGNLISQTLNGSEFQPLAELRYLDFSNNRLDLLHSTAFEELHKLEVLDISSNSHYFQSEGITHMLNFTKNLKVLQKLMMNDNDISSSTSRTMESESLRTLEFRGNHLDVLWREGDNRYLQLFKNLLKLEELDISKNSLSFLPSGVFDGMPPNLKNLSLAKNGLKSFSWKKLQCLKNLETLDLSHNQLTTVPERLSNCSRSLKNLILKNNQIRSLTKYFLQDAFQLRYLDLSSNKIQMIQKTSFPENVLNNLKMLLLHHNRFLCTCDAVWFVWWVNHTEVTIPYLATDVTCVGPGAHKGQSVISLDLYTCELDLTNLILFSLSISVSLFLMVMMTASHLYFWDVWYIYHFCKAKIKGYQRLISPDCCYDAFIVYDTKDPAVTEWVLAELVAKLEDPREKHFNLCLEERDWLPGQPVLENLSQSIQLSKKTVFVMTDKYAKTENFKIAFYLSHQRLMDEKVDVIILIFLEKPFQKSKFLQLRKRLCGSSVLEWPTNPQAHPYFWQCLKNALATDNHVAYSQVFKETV
# Assay: HEK-293 human TLR7 NF-kappaB luciferase reporter assay (CL097)
# Format: cell-based
# Procedure: Effects on mouse TLR7 were also compared. Cells were stimulated overnight with TLR7/8 agonist CL097 at pre-determined ED70-80: 3 ug/ml for HEK-hTLR7, 1.5 ug/ml for HEK-mTLR7 and 12 ug/ml for HEK-hTLR8, before reading luminescence intensity. Three tests were performed and IC50 value was determined using Graphpad Prism 6 nonlinear regression curve fit.
# HEK-293 cells (ATCC) were engineered to stably express a NF-kappaB transcription factor inducible E-selectin (ELAM-1) luciferase reporter derived from the plasmid pGL3 (Promega) containing base pairs −2241 bp to −254 bp from the promoter of the human E-selectin gene (Accession No. NM_000450). These cells were then subsequently engineered to stably and individually express human TLR4, TLR7 or TLR9 full-length ORF cDNAs. Human TLR4 cDNA (Accession No. NM_138554) was cloned into pcDNA 3.0 expression vector (Invitrogen). TLR4 transfected cells were also engineered to express human MD-2 co-receptor [MD-2 cDNA (Accession No. NM_015364) was cloned into the pEF-BOS vector] and were supplemented with 10 nM soluble CD14 (R&D Systems) in the media to optimize LPS responsiveness. Human TLR9 cDNA (Accession No. NM_017442) was cloned into the pBluescript II KS vector (Agilent). Human TLR7 cDNA (Accession No. NM_016562) was obtained from OriGene. HEK-293 cells stably expressing human TLR8 (Accession No. NM_138636) or mouse TLR7 (Accession No. NM_133211) were purchased from InvivoGen and were then stably transfected with pNiFty2(NF-kappaB)-luciferase reporter plasmid (InvivoGen). Each cell type was plated in Dulbecco's modified Eagle's medium (DMEM) containing 10% fetal bovine serum (FBS) at a density of 2.22×10^5 cells/ml into a 384-well plate and incubated for 2 days at 37° C., 5% CO2. Varying concentrations of antagonist compounds were then added. Cells were then incubated for another 30 minutes before adding the appropriate TLR agonist as follows (final concentrations indicated): lipopolysaccharide (LPS; Sigma) at 10 ng/ml for TLR4, CL097 (InvivoGen) at 3 ug/ml for human TLR7 and TLR8 and mouse TLR7, and CvG-2006-2A [sequence: […] (SEQ ID NO: 1) with phosphorothioate backbone, synthesized by Sigma-Aldrich] at 0.6 uM for TLR9.
Compound,"IC50 (IC50, HEK-293, ligand CL097, analyte NFkB-luciferase (Table 1))","IC50 (IC50, HEK-hTLR7, CL097 3 ug/ml, individual tests 1-3)","IC50 (IC50 average, HEK-hTLR7, CL097 3 ug/ml, average of three tests)","IC50 (HEK-hTLR7, CL097 3 ug/ml, average of three tests, read-out: IC50 average)","IC50 (HEK-hTLR7, CL097 3 ug/ml, individual tests 1-3, read-out: IC50)"
"C[C@@H]1CN(c2ccc(C#N)c3ncccc23)C[C@H](C(=O)N[C@H]2CNC[C@H]2F)O1.Cl [ER-899742, (2R,6R)-4-(8-cyanoquinolin-5-yl)-N-[(3S,4R)-4-fluoropyrrolidin-3-yl]-6-methylmorpholine-2-carboxamide hydrochloride]",0.006 µM,0.023 µM and 0.026 µM,0.024 µM,–,–
"CCN(CCO)CCCC(C)Nc1ccnc2cc(Cl)ccc12 (centres unmarked) [HCQ, hydroxychloroquine, reference compound]",–,–,–,9.1 µM,6.8 µM and 14.5 µM and 5.95 µM
